pIC50: −log10 of the molar value.
Legend:
[1] = biological target: T1, cathepsin D (from human liver) (Homo sapiens, UniProt P07339); experiment: Cathepsin D fluorescent substrate kinetic assay; format: biochemical; conditions: pH 5.5, substrate […]-MR121
T1 construct: cathepsin D (from human liver, Calbiochem) diluted in assay buffer; purchased Calbiochem; host or cells: purified from human liver
Text: (§1) Cathepsin D and Cathepsin E Fluorescent Substrate Kinetic Assays
(§2) The MR121 fluorescence assays described below are based on the fact that MR121 forms a non-fluorescent ground state complex with tryptophan. In solution this formation occurs at millimolar concentrations of tryptophan. The mechanism can be used to design a generic biochemical assay for proteases. A substrate peptide is labeled at the N-terminus with tryptophan and at the C-terminus with the fluorophore MR121 (for cathepsin D the 10 amino acid peptide […]-MR121 was used; for cathepsin E, MR121-[…] was used). In absence of protease activity, the substrates remain intact and the MR121 fluorescence is reduced by the high local Trp-concentration. If the substrates are cleaved by the enzymes the MR121 fluorescence is recovered.
(§3) The fluorescent substrate cathepsin D and cathepsin E kinetic assays were performed at room temperature in 384-well microtiter plates (black with clear flat bottom, non binding surface plates from Corning) in a final volume of 51 μl. The test compounds were serially diluted in DMSO (15 concentrations, ⅓ dilution steps) and 1 μl of diluted compounds were mixed for 10 min with 40 μl of cathepsin D (from human liver, Calbiochem) diluted in assay buffer (100 mM sodium acetate, 0.05% BSA, pH 5.5; final concentration: 200 nM) or with 40 μl of recombinant human cathepsin E (R&D Systems) diluted in assay buffer (100 mM sodium acetate, 0.05% BSA, pH 4.5; final concentration: 0.01 nM). After addition of 10 μl of the cathepsin D substrate […]-MR121 diluted in cathepsin D assay buffer (final concentration: 300 nM) or […] cathepsin E substrate MR121-[…] diluted in cathepsin E assay buffer (final concentration: 300 nM), the plates were strongly shaken for 2 minutes. The enzymatic reaction was followed in a plate: vision reader (Perkin Elmer) (excitation wavelength: 630 nm; emission: 695 nm) for at least 30 minutes in a kinetic measurement detecting an increase of MR121 fluorescence during the reaction time. The slope in the linear range of the kinetic was calculated and the IC50 of the test compounds were determined using a four parameter equation for curve fitting.

[2] = biological target: T2, BACE1 (Homo sapiens, UniProt P56817); experiment: Cellular Aβ-lowering assay (Aβ40 ELISA); format: cell-based; conditions: HEK293 cells stably expressing human APP wt (APP695); Aβ40 in supernatant after 18-20 hrs; read-out: BACE1 cell act. Aβ40 IC50
T2 construct: Human HEK293 cells which are stably transfected with a vector expressing a cDNA of the human APP wt gene (APP695); endogenous in cells; host or cells: HEK293 stably transfected with human APP695 wt
T2 sequence (P56817 46-501): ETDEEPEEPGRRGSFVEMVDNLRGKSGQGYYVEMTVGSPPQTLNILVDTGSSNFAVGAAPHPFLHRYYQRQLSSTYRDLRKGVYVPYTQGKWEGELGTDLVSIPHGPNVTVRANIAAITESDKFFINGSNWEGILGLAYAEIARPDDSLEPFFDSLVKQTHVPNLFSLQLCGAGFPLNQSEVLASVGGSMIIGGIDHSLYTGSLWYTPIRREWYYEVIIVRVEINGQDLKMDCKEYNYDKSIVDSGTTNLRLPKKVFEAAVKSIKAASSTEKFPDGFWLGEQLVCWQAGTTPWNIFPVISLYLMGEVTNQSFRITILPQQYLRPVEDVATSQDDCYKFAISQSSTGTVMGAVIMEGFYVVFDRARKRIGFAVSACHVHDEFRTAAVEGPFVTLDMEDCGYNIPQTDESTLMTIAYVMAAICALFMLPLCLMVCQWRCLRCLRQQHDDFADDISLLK
Outline: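 Secreted Aβ40 in the supernatant was measured by sandwich ELISA (C-terminal Aβ40 capture, HRP-4G8 detection, 450 nm) against an Aβ peptide standard curve.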

[3] = biological target: T3, recombinant human cathepsin E (Homo sapiens, UniProt P14091); experiment: Cathepsin E fluorescent substrate kinetic assay; format: biochemical; conditions: pH 4.5, substrate MR121-[…]
T3 construct: purchased R&D Systems
T3 sequence (P14091 54-396): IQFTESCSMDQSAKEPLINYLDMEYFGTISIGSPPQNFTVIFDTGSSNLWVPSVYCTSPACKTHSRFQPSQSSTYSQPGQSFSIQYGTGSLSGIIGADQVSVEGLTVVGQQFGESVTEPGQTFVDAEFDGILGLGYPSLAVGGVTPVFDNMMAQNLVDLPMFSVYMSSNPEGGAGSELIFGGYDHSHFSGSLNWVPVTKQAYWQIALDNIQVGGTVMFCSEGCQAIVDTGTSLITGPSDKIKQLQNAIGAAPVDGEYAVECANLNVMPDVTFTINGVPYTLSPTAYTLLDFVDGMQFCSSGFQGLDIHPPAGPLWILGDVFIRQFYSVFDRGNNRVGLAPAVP
Text: as §1, §2, §3

T1 sequence (P07339 65-162 limits assumed): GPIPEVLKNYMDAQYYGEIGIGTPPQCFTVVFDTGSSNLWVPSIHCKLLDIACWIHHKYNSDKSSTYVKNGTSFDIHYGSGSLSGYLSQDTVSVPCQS
T1 sequence (P07339 169-412 limits assumed): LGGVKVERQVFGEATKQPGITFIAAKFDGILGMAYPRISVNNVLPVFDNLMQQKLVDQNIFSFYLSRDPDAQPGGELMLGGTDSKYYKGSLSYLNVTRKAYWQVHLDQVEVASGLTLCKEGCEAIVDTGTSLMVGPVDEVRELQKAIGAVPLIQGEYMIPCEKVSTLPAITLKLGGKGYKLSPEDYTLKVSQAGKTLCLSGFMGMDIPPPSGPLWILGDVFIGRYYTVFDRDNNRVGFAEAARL

## N#Cc1ccc(C(=O)Nc2ccc(F)c([C@@]3(CF)N=C(N)O[C@@H]4CC(F)(F)C[C@@H]43)c2)nc1 [Example 3, 5-Cyano-pyridine-2-carboxylic acid [(S)-3-((1R,2R)-2-amino-6,6-difluoro-4-fluoromethyl-4,4a,5,6,7,7a-hexahydro-cyclopenta[e][1,3]oxazin-4-yl)-4-fluoro-phenyl]-amide]
[1]
  pIC50: < 3.70
[2]
  pIC50: 8.82
[3]
  pIC50: < 3.70

## NC1=N[C@](CF)(c2cc(NC(=O)c3cnc(C(F)F)cn3)ccc2F)[C@H]2CC(F)(F)C[C@H]2O1 [Example 24, 5-Difluoromethyl-pyrazine-2-carboxylic acid [(S)-3-((1R,2R)-2-amino-6,6-difluoro-4-fluoromethyl-4,4a,5,6,7,7a-hexahydro-cyclopenta[e][1,3]oxazin-4-yl)-4-fluoro-phenyl]-amide]
[1]
  pIC50: < 3.70
[2]
  pIC50: 8.10
[3]
  pIC50: < 3.70

## NC1=N[C@](CF)(c2cc(NC(=O)c3ccc(F)cn3)ccc2F)[C@H]2CC(F)(F)C[C@H]2O1 [Example 7, 5-Fluoro-pyridine-2-carboxylic acid [(S)-3-((1R,2R)-2-amino-6,6-difluoro-4-fluoromethyl-4,4a,5,6,7,7a-hexahydro-cyclopenta[e][1,3]oxazin-4-yl)-4-fluoro-phenyl]-amide]
[1]
  pIC50: 4.03
[2]
  pIC50: 7.78
[3]
  pIC50: 3.83

## COc1cnc(C(=O)Nc2ccc(F)c([C@@]3(C(F)F)N=C(N)O[C@@H]4CC(F)(F)C[C@@H]43)c2)cn1 [Example 42, 5-Methoxy-pyrazine-2-carboxylic acid [(S)-3-((1R,2R)-2-amino-4-difluoromethyl-6,6-difluoro-4,4a,5,6,7,7a-hexahydro-cyclopenta[e][1,3]oxazin-4-yl)-4-fluoro-phenyl]-amide]
[1]
  pIC50: < 3.82
[2]
  pIC50: 7.52
[3]
  pIC50: < 3.70

## N#Cc1ccc(C(=O)Nc2ccc(F)c([C@@]3(C(F)F)N=C(N)O[C@@H]4CC(F)(F)C[C@@H]43)c2)nc1 [Example 36, 5-Cyano-pyridine-2-carboxylic acid [(S)-3-((1R,2R)-2-amino-4-difluoromethyl-6,6-difluoro-4,4a,5,6,7,7a-hexahydro-cyclopenta[e][1,3]oxazin-4-yl)-4-fluoro-phenyl]-amide]
[1]
  pIC50: < 3.70
[2]
  pIC50: 7.84
[3]
  pIC50: < 3.70
